{"source": "paper PMC10979105", "about": "“A simple method to resolve rate constants when the binding mechanism obeys induced fit or conformational selection” (The Journal of Biological Chemistry, 2024)", "origin": "cited, not measured here", "test_system": "thrombin", "parameters": "method as in PMID 23467412", "settings": "thrombin versus zymogen prethrombin-2; cited from earlier work"}
{"smiles": "CC1CNc2c(cccc2S(=O)(=O)N[C@@H](CCCNC(=N)N)C(=O)N2CC[C@@H](C)C[C@@H]2C(=O)O)C1", "note": "(stereo partly shown) [argatroban]", "values": [{"measurement": "affinity for thrombin higher than for prethrombin-2", "value": 200, "unit": "fold"}]}
